Test results taken from US20030206968A1, “Fungicidal mixtures” (priority 1999, published 2003).
Where two headings read alike, the source gives them in different places.

Assays:
Assay type in all cases: in vivo
[1] = system: Rhynchosporium secalis; experiment: Greenhouse, Rhynchosporium secalis on barley, 1 day residual; details: Example 8; dose rate 100 ppm
Description: (§1) The trials are carried out under greenhouse (Examples 1 to 32) or field conditions (Examples 33 to 40) in residual or curative applications. The fungicides are applied in single treatments, or in a combination comprising an azolopyrimidine of formula I and a compound selected from the classes (A), (B) and (C) as defined above. The compounds are applied in form of an aqueous spray mix obtained from a concentrated formulation or the technical material.
(§2) 1. Seed is planted in 6 cm diameter plastic pots and maintained in the greenhouse.
2. When the primary leaf is fully expanded in the case of cereals or several leaves are present in the case of dicots, formulated test compounds are sprayed with a three nozzle overhead fungicide sprayer to near run-off. […]
4. Disease on the foliage as percent leaf area with disease symptoms/signs is evaluated about 7 days after inoculation. […]
(§3) Assessments of the diseases took place at the indicated day after the application of the compounds. Per cent infected leaf area infected was evaluated. The efficacy of the compounds/compounds mixtures to control the diseases was calculated by using the formula given above under item 4: […]
Synergy was calculated using the % disease control values of specific treatments for the two COLBY formula given hereinabove […]

[2] = system: Puccinia recondita; experiment: Greenhouse, Puccinia recondita on wheat, 1 day residual; details: Puccinia recondita, read-out: Observed Efficacy; for pest or weed control at 0.06 ppm: dose rate 0.06 ppm; for pest or weed control at 0.25 ppm: dose rate 0.25 ppm; for pest or weed control at 1 ppm: dose rate 1 ppm; for pest or weed control at 4 ppm: dose rate 4 ppm
From the text: as §1, with “The” for “The trials are carried out under greenhouse (Examples 1 to 32) or field conditions (Examples 33 to 40) in residual or curative applications. The”
as §2
(§4) 2. When the primary leaf is fully expanded in the case of cereals or several leaves are present in the case of dicots, formulated test compounds are sprayed with a three nozzle overhead fungicide sprayer to near run-off. Alternatively, a single nozzle overhead track sprayer is used for application of the compounds to cereals at a rate of 200 l/ha. Plants are then allowed to air-dry.
(§5) 3. Inoculation precedes treatment in the case of curative evaluations and follows treatment in case of residual evaluations. For inoculation of powdery mildew disease, plants are set up on greenhouse benches with bottom watering mats and inoculated by dusting them with conidia from infected plants. Between inoculation and treatment for curative evaluations and between treatment and inoculation for residual evaluations, plants are maintained in the greenhouse with bottom watering.
(§6) For inoculation of non-powdery mildew diseases, an aqueous spore suspension of the pathogen is applied to the plant and the plants are kept 1-2 days in a moist infection chamber before being returned to the greenhouse where they are maintained by bottom watering.
(§7) 4. Disease on the foliage as percent leaf area with disease symptoms/signs is evaluated about 7 days after inoculation. In the case of wheat, the tips and bases of the leaves are excluded from the evaluation. [formula]
(§8) 1. Technical compounds are formulated in a solvent/surfactant system consisting of 5% acetone and 0.05% Tween 20 in deionized water. Compounds are dissolved in acetone prior to addition of the water; the Tween 20 can be added through either the acetone or the water. Dilutions are made using the solvent/surfactant system. Formulated compounds are prepared using deionized water.
(§9) 2. Two kinds of controls are included: Plants treated with the solvent/surfactant solution and inoculated (Solvent Blank). Untreated plants which are inoculated (Inoculated Control).
as §3
(§10) Synergy was calculated using the % disease control values of specific treatments for the two COLBY formula given hereinabove
Fungicidal efficacy of the mixture of Azolopyrimidine C+metconazole (1 day residual) against Puccinia recondita on wheat The tank mix was obtained from a SC formulation containing 100 g Azolopyrimidine C per liter and an EC containing 100 g metconazole per liter. […]
Fungicidal efficacy of the mixture of Azolopyrimidine C+fluazinam (1 day residual) against Puccinia recondita on wheat The tank mix was obtained from technical material of Azolopyrimidine C and a SC formulation containing 500 g fluazinam per liter. […]

[3] = system: Alternaria solani; experiment: Greenhouse, Alternaria solani on tomatoes, 1 day residual; details: Example 25; rate 4 g/ha
Description: as §1, §2, §4, §5, §6, §7, §8, §9, §3, §10
Fungicidal efficacy of the mixture of Azolopyrimidine C and different fungicides (1 day residual) against Alternaria solani on tomatoes The tank mix was obtained from an SC formulation containing 100 g Azolopyrimidine A per liter and WP formulations of dithianon (750 g/kg), captan (500 g/kg), cyprodinil (750 g/kg), mancozeb (800 g/kg), or a SC formulation of chlorothalonil (500 g/l), or a FS formulation of fenpiclonil (400 g/l), spectively.

[4] = system: Puccinia recondita; experiment: Greenhouse, Puccinia recondita on wheat, 1 day curative, plants sprayed twice, once with each compound; details: Example 12
Description: as §1, §2, §4, §5, §6, §7, §8, §9, §3, §10
Fungicidal efficacy of the mixture of Azolopyrimidine C+kresoxim methyl (1 day curative) against Puccinia recondita on wheat Plants sprayed twice, once with each compound. The tank mixes were obtained from a SC formulation containing 100 g Azolopyrimidine C per liter and a WG containing 500 g kresoxim methyl per kg.

[5] = system: Puccinia recondita; experiment: Greenhouse, Puccinia recondita on wheat, 2 days curative; details: Example 28
Description: as §1, §2, §4, §5, §6, §7, §8, §9, §3, §10
Fungicidal efficacy of the mixture of (S)-Azolopyrimidine C in admixture with Azoxystrobin or Trifloxystrobin (2 days curative) against Puccinia recondita on wheat. The tank mixes were obtained from technical material of (S)-Azolopyrimidine C and Azoxystrobin or Trifloxystrobin.

[6] = system: Blumeria graminis; experiment: Greenhouse, Blumeria graminis on wheat, 4 days residual; details: Example 30
Description: as §1, §2, §4, §5, §7, §8, §9, §3, §10
Fungicidal efficacy of the mixture of (S)-Azolopyrimidine C in admixture with Azoxystrobin or Trifloxystrobin (4 days residual) against Blumeria graminis on wheat. The tank mixes were obtained from technical material of (S)-Azolopyrimidine C and Azoxystrobin or Trifloxystrobin.

CC(Nc1c(-c2c(F)cc(F)cc2F)c(Cl)nc2ncnn12)C(F)(F)F (stereo not drawn) [Azolopyrimidine C, 5-chloro-6-(2,4,6-trifluorophenyl)-7-(1,1,1-trifluoroprop-2-ylamino)-[1,2,4]triazolo[1,5-a]pyrimidine]
Observed Efficacy [1]: 15%
pest or weed control at 2 ppm ([2]; Example 11, dose rate 2 ppm): 2%
pest or weed control at 8 ppm ([2]; Example 11, dose rate 8 ppm): 1%
pest or weed control at 10 ppm ([2]; Example 11, dose rate 10 ppm): 3%
pest or weed control at 25 ppm ([2]; Example 11, dose rate 25 ppm): 5%
pest or weed control at 40 ppm ([2]; Example 11, dose rate 40 ppm): 10%
pest or weed control at 125 ppm ([2]; Example 11, dose rate 125 ppm): 20%
pest or weed control at 200 ppm ([2]; Example 11, dose rate 200 ppm): 35%
pest or weed control at 0.06 ppm ([2]; Example 13): 8%
pest or weed control at 0.25 ppm ([2]; Example 13): 41%
pest or weed control at 1 ppm ([2]; Example 13): 71%
pest or weed control at 4 ppm ([2]; Example 13): 100%
pest or weed control at 0.06 ppm ([2]; Example 14): 8%
pest or weed control at 1 ppm ([2]; Example 14): 71%
pest or weed control at 4 ppm ([2]; Example 14): 100%
pest or weed control at 0.06 ppm ([2]; Example 15): 8%
pest or weed control at 0.25 ppm ([2]; Example 15): 49%
pest or weed control at 1 ppm ([2]; Example 15): 71%
pest or weed control at 4 ppm ([2]; Example 15): 100%
pest or weed control at 0.06 ppm ([2]; Example 19): 8%
pest or weed control at 0.25 ppm ([2]; Example 19): 49%
pest or weed control at 1 ppm ([2]; Example 19): 71%
pest or weed control at 4 ppm ([2]; Example 19): 100%
pest or weed control at 0.86 ppm ([2]; Example 20, dose rate 0.86 ppm): 8%
pest or weed control at 0.06 ppm ([2]; Example 21): 8%
pest or weed control at 1 ppm ([2]; Example 22): 71%
Observed Efficacy [3]: 25%

5-chloro-6-(2,4,6-trifluorophenyl)-7-(1,1,1-trifluoroprop-2-ylamino)-[1,2,4]triazolo[1,5-a]pyrimidine [(S)-Azolopyrimidine C]
Observed Efficacy ([4]; dose rate 25 g/ha): 25%
Observed Efficacy ([4]; dose rate 50 g/ha): 66%
Observed Efficacy ([4]; dose rate 100 g/ha): 79%
Observed Efficacy ([4]; dose rate 200 g/ha): 97%
Observed Efficacy ([4]; dose rate 400 g/ha): 99%
Observed Efficacy ([5]; dose rate 1.6 ppm): 0%
Observed Efficacy ([5]; dose rate 3.1 ppm): 0%
Observed Efficacy ([5]; dose rate 6.3 ppm): 8%
Observed Efficacy ([5]; dose rate 12.5 ppm): 23%
Observed Efficacy ([5]; dose rate 25 ppm): 54%
Observed Efficacy ([6]; dose rate 3.1 ppm): 0%
Observed Efficacy ([6]; dose rate 6.3 ppm): 0%
Observed Efficacy ([6]; dose rate 12.5 ppm): 3%
Observed Efficacy ([6]; dose rate 25 ppm): 11%
Observed Efficacy ([6]; dose rate 50 ppm): 34%
